Each structure is given as a SMILES string.

The record followed here is US20250011299A1, “PYRIDAZINYL AMINO DERIVATIVES AS ALK5 INHIBITORS” (CHIESI FARMACEUTICI S.P.A., priority 2021, published 2025).

The target of the assay is T1, human ALK5 (Homo sapiens, UniProt P36897).
T1 construct: human ALK5 (recombinant TGF β1 N-term GST-tagged, 80-end); GST (N); purchased
T1 sequence (P36897 80-503 limits assumed): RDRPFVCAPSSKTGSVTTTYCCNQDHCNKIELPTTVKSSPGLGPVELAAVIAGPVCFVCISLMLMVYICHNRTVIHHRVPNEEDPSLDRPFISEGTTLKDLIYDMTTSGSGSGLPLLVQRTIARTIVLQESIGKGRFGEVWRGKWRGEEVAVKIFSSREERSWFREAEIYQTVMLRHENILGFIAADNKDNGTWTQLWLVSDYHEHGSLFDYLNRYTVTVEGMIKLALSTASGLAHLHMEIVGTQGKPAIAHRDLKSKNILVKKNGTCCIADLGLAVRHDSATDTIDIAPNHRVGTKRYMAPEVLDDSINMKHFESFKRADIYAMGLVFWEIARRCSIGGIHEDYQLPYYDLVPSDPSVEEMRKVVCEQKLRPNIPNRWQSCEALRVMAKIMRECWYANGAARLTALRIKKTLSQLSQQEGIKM
In words: ADP-GLO Kinases assay of ALK5 enzymatic activity. Format: biochemical. The conditions noted are these: purified recombinant human ALK5, TGFβ1 peptide substrate, pIC50 converted to pKi by Cheng-Prusoff, high ATP protocol (15 μM) for very potent compounds, 25° C. Summed up: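 Purified ALK5 preincubated 15 min with compound, then reacted with substrate and ATP; ADP formed read by ADP-Glo luminescence after 120 min or 60 min reaction, all steps at 25° C. 11-point concentration-response; pIC50 converted to pKi via Cheng-Prusoff.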
In general terms: ADP-Glo first removes unused ATP, then detects ADP through luciferase.
With `O=C(CN1CCNCC1)Nc1cc(Nc2cc(-c3cc(Cl)ccc3F)nnc2SCCO)ccn1` [Example 60, N-(4-{[6-(5-chloro-2-fluorophenyl)-3-[(2-hydroxyethyl)sulfanyl]pyridazin-4-yl]amino}pyridin-2-yl)-2-(piperazin-1-yl)acetamide], the Ki (in general, the equilibrium dissociation constant of an inhibitor or competing ligand from its target) is not above 100 pM.

As for `O=C(Nc1cc(Nc2cc(-c3cc(Cl)ccc3F)nnc2SCCO)ncn1)[C@H]1C[C@@H](N2CCN(C3CC3)CC2)C1` [Example 181, Cis N-(6-{[6-(5-chloro-2-fluorophenyl)-3-[(2-hydroxyethyl)sulfanyl]pyridazin-4-yl]amino}pyrimidin-4-yl)-3-(4-cyclopropylpiperazin-1-yl)cyclobutane-1-carboxamide], the Ki was not above 100 pM.

`COCCOc1nnc(-c2cc(Cl)ccc2F)cc1Nc1ccnc(NC(=O)CCN2CCN(C)CC2)c1` [Example 31, N-(4-{[6-(5-chloro-2-fluorophenyl)-3-(2-methoxyethoxy)pyridazin-4-yl]amino}pyridin-2-yl)-3-(4-methylpiperazin-1-yl)propanamide]: the Ki is not above 100 pM.

For the molecule `CN1CCN(CCC(=O)Nc2cc(Nc3cc(-c4cc(Cl)ccc4F)nnc3O[C@H]3C[C@@H](CO)C3)ccn2)CC1` [Example 80, N-(4-{[6-(5-chloro-2-fluorophenyl)-3-[3-(hydroxymethyl)cyclobutoxy]pyridazin-4-yl]amino}pyridin-2-yl)-3-(4-methylpiperazin-1-yl)propanamide], the Ki was not above 100 pM.

As to `C[C@@H]1CN(CC23CC(C(=O)Nc4cc(Nc5cc(-c6cc(Cl)ccc6F)nnc5SCCO)ccn4)(C2)C3)C[C@H](C)N1` [Example 191, N-(4-{[6-(5-chloro-2-fluorophenyl)-3-[(2-hydroxyethyl)sulfanyl]pyridazin-4-yl]amino}pyridin-2-yl)-3-[(3,5-dimethylpiperazin-1-yl)methyl]bicyclo[1.1.1]pentane-1-carboxamide], the Ki is 126 to 316 pM.

`COc1nnc(-c2cc(Cl)ccc2F)cc1Nc1ccnc(NC(=O)CCN2CCN(C)CC2)c1` [Example 47, N-(4-{[6-(5-chloro-2-fluorophenyl)-3-methoxypyridazin-4-yl]amino}pyridin-2-yl)-3-(4-methylpiperazin-1-yl)propanamide]: the Ki is not above 100 pM.

Regarding `C[C@@H]1CN([C@H]2C[C@@H](C(=O)Nc3cc(Nc4cc(-c5cc(Cl)ccc5F)nnc4N(C)CC4(C)CCOC4=O)ncn3)C2)C[C@H](C)N1` (single isomer, unassigned) [Example 186, N-(6-{[6-(5-chloro-2-fluorophenyl)-3-{methyl[(3-methyl-2-oxooxolan-3-yl)methyl]amino}pyridazin-4-yl]amino}pyrimidin-4-yl)-3-(3,5-dimethylpiperazin-1-yl)cyclobutane-1-carboxamide], the Ki was not above 100 pM.

Turning to `CN1CCN([C@H]2C[C@@H](C(=O)Nc3cc(Nc4cc(-c5cc(Cl)ccc5F)nnc4OC[C@H]4C[C@@](C)(O)C4)ccn3)C2)CC1` [Example 124, Cis N-(4-{[6-(5-chloro-2-fluorophenyl)-3-[(3-hydroxy-3-methylcyclobutyl)methoxy]pyridazin-4-yl]amino}pyridin-2-yl)-3-(4-methylpiperazin-1-yl)cyclobutane-1-carboxamide], the Ki was not above 100 pM.

On to `CN1CCN(CCC(=O)Nc2cc(Nc3cc(-c4cc(Cl)ccc4F)nnc3N3CC(CO)C3)ccn2)CC1` [Example 95, N-(4-{[6-(5-chloro-2-fluorophenyl)-3-[3-(hydroxymethyl)azetidin-1-yl]pyridazin-4-yl]amino}pyridin-2-yl)-3-(4-methylpiperazin-1-yl)propanamide], for which the Ki was not above 100 pM.

Take `CN1CCN(CCC(=O)Nc2cc(Nc3cc(-c4cc(Cl)ccc4F)nnc3SCC3COC(C)(C)O3)ccn2)CC1` (stereo not drawn) [Example 85, N-(4-{[6-(5-chloro-2-fluorophenyl)-3-{[(2,2-dimethyl-1,3-dioxolan-4-yl)methyl]sulfanyl}pyridazin-4-yl]amino}pyridin-2-yl)-3-(4-methylpiperazin-1-yl)propanamide]: the Ki is not above 100 pM.

For `CN1CCN(CCC(=O)Nc2cc(Nc3cc(-c4cc(Cl)ccc4F)nnc3SCCO)ncn2)CC1` [Example 176, N-(6-{[6-(5-chloro-2-fluorophenyl)-3-[(2-hydroxyethyl)sulfanyl]pyridazin-4-yl]amino}pyrimidin-4-yl)-3-(4-methylpiperazin-1-yl)propanamide], the Ki is not above 100 pM.

On to `CN1CC2CC1CN2CC(=O)Nc1cc(Nc2cc(-c3cc(Cl)ccc3F)nnc2SCCO)ccn1` (stereo not drawn) [Example 25, N-(4-{[6-(5-chloro-2-fluorophenyl)-3-[(2-hydroxyethyl)sulfanyl]pyridazin-4-yl]amino}pyridin-2-yl)-2-{5-methyl-2,5-diazabicyclo[2.2.1]heptan-2-yl}acetamide], for which the Ki is not above 100 pM.

Regarding `O=C(CN1CCCNCC1)Nc1cc(Nc2cc(-c3cc(Cl)ccc3F)nnc2SCCO)ccn1` [Example 61, N-(4-{[6-(5-chloro-2-fluorophenyl)-3-[(2-hydroxyethyl)sulfanyl]pyridazin-4-yl]amino}pyridin-2-yl)-2-(1,4-diazepan-1-yl)acetamide], the Ki is not above 100 pM.

As to `CN1CCN(CCOc2ccc3c(Nc4cc(-c5cc(Cl)ccc5F)nnc4OCCNS(C)(=O)=O)ccnc3c2)CC1` [Example 6, N-(2-{[6-(5-chloro-2-fluorophenyl)-4-({7-[2-(4-methylpiperazin-1-yl)ethoxy]quinolin-4-yl}amino)pyridazin-3-yl]oxy}ethyl)methanesulfonamide], the Ki was not above 100 pM.

Take `COCCOc1nnc(-c2cc(Cl)ccc2F)cc1Nc1ccnc(NC(=O)CCN2CCOCC2)c1` [Example 34, N-(4-{[6-(5-chloro-2-fluorophenyl)-3-(2-methoxyethoxy)pyridazin-4-yl]amino}pyridin-2-yl)-3-(morpholin-4-yl)propanamide]: the inhibition constant Ki is not above 100 pM.

On to `C[C@@H]1CN(CCC(=O)Nc2cc(Nc3cc(-c4cc(Cl)ccc4F)nnc3SCC[Si](C)(C)C)ncn2)C[C@H](C)N1` [Example 195, N-(6-{[6-(5-chloro-2-fluorophenyl)-3-{[2-(trimethylsilyl)ethyl]sulfanyl}pyridazin-4-yl]amino}pyrimidin-4-yl)-3-(3,5-dimethylpiperazin-1-yl)propanamide], for which the Ki is 126 to 316 pM.

In the case of `CN1CCN(CCCC(=O)Nc2cc(Nc3cc(-c4cc(Cl)ccc4F)nnc3SCCO)ccn2)CC1` [Example 23, N-(4-{[6-(5-chloro-2-fluorophenyl)-3-[(2-hydroxyethyl)sulfanyl]pyridazin-4-yl]amino}pyridin-2-yl)-4-(4-methylpiperazin-1-yl)butanamide], the Ki is 126 to 316 pM.

As for `CN1CCN(CCC(=O)Nc2cc(Nc3cc(-c4cc(Cl)ccc4F)nnc3S(C)(=N)=O)ccn2)CC1` (stereo not drawn) [Example 19, N-(4-{[6-(5-chloro-2-fluorophenyl)-3-[imino(methyl)oxo-λ^6-sulfanyl]pyridazin-4-yl]amino}pyridin-2-yl)-3-(4-methylpiperazin-1-yl)propanamide], the Ki was 398 to 3160 pM.

For the molecule `CN1CCN([C@H]2C[C@@H](C(=O)Nc3cc(Nc4cc(-c5cc(Cl)ccc5F)nnc4SCCO)ccn3)C2)CC1` [Example 83, Cis N-(4-{[6-(5-chloro-2-fluorophenyl)-3-[(2-hydroxyethyl)sulfanyl]pyridazin-4-yl]amino}pyridin-2-yl)-3-(4-methylpiperazin-1-yl)cyclobutane-1-carboxamide], the Ki is not above 100 pM.

For the molecule `CN1CCN(CCC(=O)Nc2cc(Nc3cc(-c4cc(Cl)ccc4F)nnc3NCc3cccc(O)c3)ccn2)CC1` [Example 101, N-(4-{[6-(5-chloro-2-fluorophenyl)-3-{[(3-hydroxyphenyl)methyl]amino}pyridazin-4-yl]amino}pyridin-2-yl)-3-(4-methylpiperazin-1-yl)propanamide], the Ki was not above 100 pM.

Turning to `CN1CCCN(CC(=O)Nc2cc(Nc3cc(-c4cc(Cl)ccc4F)nnc3OC3CCOC3)ccn2)CC1` (single isomer, unassigned) [Example 73, N-(4-{[6-(5-chloro-2-fluorophenyl)-3-(oxolan-3-yloxy)pyridazin-4-yl]amino}pyridin-2-yl)-2-(4-methyl-1,4-diazepan-1-yl)acetamide], the inhibition constant (Ki) is not above 100 pM.

Consider `O=C(Nc1cc(Nc2cc(-c3cc(Cl)ccc3F)nnc2OCCN2CCCC2)ccn1)C1CC1` [Example 54, N-(4-{[6-(5-chloro-2-fluorophenyl)-3-[2-(pyrrolidin-1-yl)ethoxy]pyridazin-4-yl]amino}pyridin-2-yl)cyclopropanecarboxamide], for which the Ki was not above 100 pM.

Consider `CN1CCN(CCC(=O)Nc2cc(Nc3cc(-c4cc(Cl)ccc4F)nnc3SCC3CCCC(=O)O3)ccn2)CC1` (racemic) [Example 204, N-(4-{[6-(5-chloro-2-fluorophenyl)-3-{[(6-oxooxan-2-yl)methyl]sulfanyl}pyridazin-4-yl]amino}pyridin-2-yl)-3-(4-methylpiperazin-1-yl)propanamide], for which the Ki was not above 100 pM.

On to `CN1CCN(CCOc2ccc3c(Nc4cc(-c5cc(Cl)ccc5F)nnc4OCCN)ccnc3c2)CC1` [Example 5, N-[3-(2-aminoethoxy)-6-(5-chloro-2-fluorophenyl)pyridazin-4-yl]-7-[2-(4-methylpiperazin-1-yl)ethoxy]quinolin-4-amine], for which the Ki is 126 to 316 pM.
